Measurements: US10189822B2, “Heterocyclic modulators of lipid synthesis” (3-V Biosciences, Inc., priority 2015, dated 2019)

How the values were obtained:
[1] = tested on: Db/+ mice fed a high fructose diet; settings: treated for 28 days; cited from earlier work
db/db mice = settings: mouse, in vivo; cited from earlier work
[2] = tested on: HCV GT1b replicon cell line; assay: Two-compound combination study in HCV GT1b replicon, MacSynergy II; assay type: cell-based
Protocol: The DMSO stocks of the compounds used in the single compound testing were also used in this analysis. Combination dilution matrixes were generated by POD-810 in 96-well assay microplates. The POD-810 system was used to generate 7-point, 2-fold serial dilutions in a matrix format.
The plates were incubated for 1 hour, and cell viability was measured on an Envision reader for cytotoxicity calculation. The liquid was then removed from the plates, after which 50 μL PBS and 50 μL firefly luciferase substrate solution were added to each well, after a 2-minute incubation period, chemiluminescence (for HCV replication calculation) was measured. The data were analyzed using MacSynergy™ II.

[3] = tested on: HCV GT1b replicon cell line; assay type: cell-based; settings: IFN-α
HCV replicon GT1b cells = assay: Cytotoxicity in HCV replicon GT1b cells, Cell Titer Flo (Example 5); assay type: cell-based; settings: 72 hours, IFN-α
[4] = tested on: HCV GT1b replicon cell line; settings: expected value, Table 10; IFN-α; cited from earlier work

Compound: CC12C[C@@]34C=CC(=O)[C@@](C)(CCC(=O)Nc5c(O)ccc(C(=O)O)c5O)C3[C@H](CC1C4)O2 (stereo partly drawn) [platensimycin]
- Insulin sensitivity [1]: improved insulin sensitivity
- Liver triglyceride levels [1]: reduced liver triglyceride levels
- Ambient glucose levels (db/db mice): reduced

Compound: Cc1ccc(C(=O)N2CCC(F)(c3ccc(C#N)cc3)CC2)cc1NC(=O)NC1CCCOC1 (stereo not drawn) [(V-K)]
- Combination antiviral effect (in words) ([2]; in combination with IFN-α, RBV, Compounds B, C, D, E): additive antiviral activity

Compound: IFN-α
- GT1b EC50 in dose ranging assay ([3]; Table 13): 1.34 IU/mL
- GT1b EC50 ([3]; single compound, 72 hours): 1.34 IU/mL
- GT1b CC50 (HCV replicon GT1b cells): >1000 IU/mL
- GT1b EC50 of single dose in drug combination ([2]; individual compound in the combination matrix, IFN-α): 3.43 IU/mL
- GT1b Expected EC50 [4]: 1 IU/mL
